Laboratory results taken from US7488732B2, “2-substituted pyrimidines” (BASF Aktiengesellschaft, priority 2003, dated 2009).

What was measured:
Sphaerotheca fuliginea = experiment: Activity against mildew on cucumber leaves caused by Sphaerotheca fuliginea, protective application; format: in vivo; conditions: 250 ppm, protective spray on cucumber seedlings, rated after 7 days; untreated control 90% infection
Method: The active compounds were prepared as a stock solution with 0.25% by weight of active compound in acetone or DMSO. 1% by weight of the emulsifier Uniperol® EL (wetting agent having emulsifying and dispersing action based on ethoxylated alkylphenols) was added to this solution, and the solution was diluted with water to the desired concentration. 3. Activity against mildew on cucumber leaves caused by Sphaerotheca fuliginea, protective application Leaves of potted cucumber seedlings of the cultivar “Chinese snake” were, at the cotyledon stage, sprayed to runoff point with an aqueous suspension of the active compound concentration given below. 20 hours after the spray coating had dried on, the plants were inoculated with an aqueous spore suspension of mildew of cucumber (Sphaerotheca fuliginea). The plants were then cultivated in a greenhouse at temperatures between 20 and 24° C. and 60 to 80% relative atmospheric humidity for 7 days. The extend of the mildew development was then determined visually in % infection of the coltyledon area.

Botrytis cinerea = experiment: Activity against gray mold on capsicum leaves caused by Botrytis cinerea, protective application; format: in vivo; conditions: 250 ppm, protective spray on capsicum seedlings, rated after 5 days; untreated control 90% infection
Method: The active compounds were prepared as a stock solution with 0.25% by weight of active compound in acetone or DMSO. 1% by weight of the emulsifier Uniperol® EL (wetting agent having emulsifying and dispersing action based on ethoxylated alkylphenols) was added to this solution, and the solution was diluted with water to the desired concentration. 2. Activity against gray mold on capsicum leaves caused by Botrytis cinerea, protective application Capsicum seedlings of the cultivar “Neusiedler Ideal Elite” were, after 4-5 leaves had fully developed, sprayed to runoff point with an aqueous suspension of the active compound concentration given below. The next day, the treated plants were inoculated with a spore suspension of Botrytis cinerea comprising 1.7×10^6 spores/ml in a 2% aqueous biomalt solution. The test plants were subsequently placed in a climatized chamber at 22 to 24° C. and high atmospheric humidity. After 5 days, the extent of the fungal infection on the leaves could be determined visually in %.

## CCC(C)Cc1nc(C#N)nc(C)c1-c1c(F)cc(F)cc1F (centres unmarked) [I-4, 2-Cyano-4-methyl-5-(2,4,6-trifluorophenyl)-6-(2-methylbutyl)pyrimidine]
Sphaerotheca fuliginea
  infection (mildew, determined visually in % infection of the cotyledon area): no infection
Botrytis cinerea
  infection (gray mold on leaves, determined visually in %): no infection
